Values joined by “and” are separate entries in the source; they are usually repeats but may differ in a detail not shown here. Equal entries are not always repeated. Where two headings read alike, the source gives them in different places.
Assays:
HSV-1 [1] = experiment: Treatment of virus-infected cells with polyphenols, CPE inhibition assay; assay type: cell-based, HSV-1 strain L2
Experimental: In order to study the mechanism of action of these compounds, two additional schemes of treatment of the virus and Vero cells with polyphenols were applied: the compounds were added before virus infection (pretreatment of cells) and after penetration of the virus into host cells (treatment of infected cells). The fourth method of exposure where the virus and polyphenols were added to cells simultaneously (simultaneous treatment) was previously described by us in [22]. The anti-HSV-1 activity of polyphenols was assessed using the cytopathic effect inhibition (CPE) assay.
The monolayer of cells was infected with the virus (100 TCID50/mL) at 37 °C for 1 h, and then the cells were washed with PBS (Sigma, Saint-Louis, MO, USA) and treated with different concentrations of the studied compounds and incubated until CPE appeared.

HSV-1 [2] = tested on: HSV-1; design: method as in PMID 36985562; conditions: ref [22], cited from earlier work
HSV-1 [3] = experiment: Virucidal activity, CPE inhibition assay (HSV-1 pretreated with compounds); assay type: cell-based, HSV-1 strain L2
Experimental: The antiviral activity of polyphenols from M. amurensis against HSV-1 was assessed using the cytopathic effect inhibition (CPE) assay. To study the inhibitory effect of polyphenolic compounds directly on the HSV-1 virus (direct virucidal activity), the monolayer of Vero cells grown on 96-well plates (1 × 10^4 cells/well) was infected with the virus (100 TCD50/mL), pretreated with different concentrations of polyphenolic compounds.
(§1) The HSV-1 strain L2 obtained from N.F. Gamaleya Federal Research Centre for Epidemiology and Microbiology (Moscow, Russia) was grown in Vero cells as previously described.
(§2) We determined the direct inhibitory effect of polyphenolic compounds from M. amurensis heartwood on HSV-1 (virucidal effect). We mixed the virus at an infectious dose (100 TCID50/mL) with polyphenolic compounds (from 0.1 to 100 µg/mL) at a ratio of 1:1 (v/v) and incubated for an hour at 37 °C. Then, we infected the monolayer of Vero cells grown on 96-well plates (1 × 10^4 cells/well) with HSV-1 pretreated with the studied compounds. After 1 h adsorption at 37 °C, the cells were washed with phosphate-buffered saline (PBS) and overlaid by the maintenance medium with 1% FBS. The plates were incubated for 72 h at 37 °C in a CO2-incubator. The cytopathic effect (CPE) inhibition assay and real-time reverse transcription-PCR (RT-PCR) assay were used to evaluate virucidal effect of the tested compounds.
We previously described this method in detail in [22]. We performed the MTT assay to evaluate the antiviral activity of polyphenolic compounds. The viral inhibition rate (IR, %) was calculated according to Equation (1):(1) IR, %=Atv−Acv/Acd−Acv×100, where Atv is the absorbance of cells infected with HSV-1 pretreated with the studied compounds,
We calculated the selectivity index (SI) as the ratio of CC50 to IC50. Experiments were repeated three times.

[4] = tested on: 6-OHDA-treated Neuro-2a cells; experiment: 6-OHDA-induced neurotoxicity model, cell viability test (MTT); assay type: cell-based, murine; conditions: compounds at 10, 1, 0.1 µM; 6-OHDA 100 µM
Experimental: Neuro-2a cells were incubated with the studied polyphenolic compounds for 1 h. Then, 100 µM of 6-hydroxydopamine 6-OHDA were added. We determined the percentage of living Neuro-2a cells after treatment with 6-OHDA (Figure 4a–d).
Figure 4 The effect of polyphenolic compounds isolated from M. amurensis heartwood on the viability of Neuro-2a cells treated with 6-OHDA (100 μM) (a–d). The viability of Neuro-2a cells treated with various compounds and 6-OHDA was measured by the MTT assay. Polyphenolic compounds isolated from M. amurensis heartwood were used at concentrations 10, 1, 0.1 μM. The data are presented as means ± SEM of three independent replicates. (*) indicate p < 0.05 versus 6-OHDA-treated cells.
After 24 h of adhesion, Neuro-2a cells (5 × 10^4 cells/mL) were treated with polyphenolic compounds at concentrations of 0.1, 1 and 10 μM for 1 h. Then, 100 µM of 6-OHDA or 1 mM of PQ (Sigma-Aldrich, St. Louis, MO, USA) were added. Cells incubated without inductors or with inductors were used as positive and negative control, respectively. Cell viability was measured after 24 h using the MTT assay.

HSV-1 [5] = experiment: Virucidal activity, RT-PCR assay (HSV-1 pretreated with compounds); assay type: cell-based, HSV-1 strain L2; conditions: for Ct: 72 h; for −ΔCt: vs virus control
Experimental: Vero cells grown on 96-well plates were infected with the virus (100 TCID50/mL), pretreated with polyphenolic compounds at concentrations 0.1, 1 and 10 μg/mL. After 72 h of cell incubation, viral DNA was extracted from the supernatants, and the relative level of HSV-1 DNA was determined using RT-PCR. The effect of polyphenols on the relative level of viral DNA was assessed using the 2^−∆Ct method and reported as fold reduction compared to virus control.
as §1, §2
We performed the RT-PCR assay as we previously described in detail in [22]. Briefly, HSV-1 DNA was extracted after incubation from cell supernatants by using the DNA-sorb-AM (K1-12-100-CE) nucleic acid extraction kit (AmpliSens®, Moscow, Russia) according to the manufacturer′s instructions. We treated the supernatants with a lysis solution that contained guanidine chloride (chaotropic agent) in the presence of sorbent (silica particles). As the elution solution was added, the DNA was […] silica particles and separated from the sorbent particles by centrifugation.
We detected the DNA of HSV-1 in the obtained samples using the AmpliSens® HSV I, II-FRT-100F PCR kit (AmpliSens®, Moscow, Russia) on a real-time PCR instrument Rotor-Gene Q (Qiagen, Hilden, Nordrhein-Westfalen, Germany) according to the manufacturer′s instructions. The PCR reaction conditions were the following: initial denaturation at 95 °C for 15 min; then 5 cycles at 95 °C for 5 s, at 60 °C for 20 s, at 72 °C for 15 s; then 40 cycles at 95 °C for 5 s, at 60 °C for 20 s, and at 72 °C for 15 s. A negative sample was used as the amplification control for each run. The threshold cycle number Ct, was measured as the PCR cycle, where the amount of the amplified target reached the threshold value; the Ct values ≥ 37 indicated the absence of the HSV-1 DNA in the samples. We assessed the anti-HSV-1 activity of the studied compounds by the reduction in the viral DNA levels using the 2^−ΔCt method according to Equation (2):(2) ΔCt=Ctcv−Cttv where Ct is the threshold cycle number measured as the PCR cycle, where the amount of the amplified target reached the threshold value, […]

[6] = Cytotoxicity against Vero cells (MTT assay); assay type: cell-based; conditions: African green monkey
Experimental: We prepared the stock solutions of the tested compounds (10 mg/mL) in DMSO (Sigma, St. Louis, MO, USA). For the MTT assay and further studies of anti-HSV-1 activity, we diluted the stock solutions with DMEM so that the final concentration of DMSO was 0.5%.
We used MTT assay to determine the cytotoxic effect of the tested compounds against Vero cells. We performed the MTT assay as previously described.

[7] = Human alphaherpesvirus 1, 72 h, read-out: 2^−ΔCt
[8] = Human alphaherpesvirus 1, 72 h, read-out: log10

For `Nc1nc2c(ncn2COCCO)c(=O)[nH]1` [Acyclovir, reference compound], the IC50 (HSV-1 [1]; Human alphaherpesvirus 1, compound added after virus adsorption and penetration, CPE assay) is given as 0.4 µg/mL and 1.8 µM, the “Treatment of Infected Cells SI” value (HSV-1 [1]; ratio of CC50 to IC50) is given as greater than 2500 and the “Simultaneous Treatment SI” value (HSV-1 [2]; ratio of CC50 to IC50) is given as 430. For the same compound, the “Simultaneous Treatment IC50” value (HSV-1 [2]; virus and compound added to cells simultaneously, CPE assay) was 2.1 ± 0.3 µg/mL and the IC50 (HSV-1 [2]; virus and compound added to cells simultaneously, CPE assay, read-out: Simultaneous Treatment IC50) was 9.3 ± 1.3 µM.
In the case of `Oc1ccc2c(c1)OC[C@H]1c3cc4c(cc3O[C@@H]21)OCO4` [Compound 4, maackiain], the IC50 (HSV-1 [3]; Human alphaherpesvirus 1, virus pretreated with compound (virucidal), CPE assay, Vero cells, 100 TCID50/mL) is reported as 28.3 µg/mL and 99.6 µM, the SI (HSV-1 [3]; ratio of CC50 to IC50, virucidal scheme) is reported as 5.4 and 5.4 ± 0.7 and the “effect on viability of 6-OHDA-treated Neuro-2a cells (in words)” value [4] is reported as “weak effect on cell viability”. For the same compound, the Ct (HSV-1 [5]; 0.1 µg/mL) was 18.1 ± 2.2, the “−ΔCt” value (HSV-1 [5]; 0.1 µg/mL) was 0 and the Ct (HSV-1 [5]; 1 µg/mL) was 19.0 ± 2.1. The “−ΔCt” value (HSV-1 [5]; 1 µg/mL) was −0.9 ± 0.1, the “anti-HSV-1 activity by RT-PCR (in words)” value (HSV-1 [5]; 10 µg/mL) was “moderate anti-HSV-1 activity” and the Ct (HSV-1 [5]; 10 µg/mL) was 20.7 ± 2.3. The “−ΔCt” value (HSV-1 [5]; 10 µg/mL) was −2.6 ± 0.3, the activity at 0.1 µg/mL (HSV-1 [5]; [7]) was 100% and the activity at 1 µg/mL (HSV-1 [5]; [7]) was 53.6 ± 6.4%. For the same compound, the activity at 10 µg/mL (HSV-1 [5]; [7]) was 16.5 ± 2.1%, the log reduction at 0.1 µg/mL (HSV-1 [5]; [8]) was 0 and the log reduction at 1 µg/mL (HSV-1 [5]; [8]) was 0.3 ± 0.04. The log reduction at 10 µg/mL (HSV-1 [5]; [8]) was 0.8 ± 0.1 and the CC50 [6] was 152 µg/mL and 536 µM.
